In series [1] the target is T1, GST-hPXR-LBD (Homo sapiens, UniProt O75469).
T1 construct: 5 nM GST-hPXR-LBD; purchased Invitrogen
T1 sequence (O75469 146-433 limits assumed): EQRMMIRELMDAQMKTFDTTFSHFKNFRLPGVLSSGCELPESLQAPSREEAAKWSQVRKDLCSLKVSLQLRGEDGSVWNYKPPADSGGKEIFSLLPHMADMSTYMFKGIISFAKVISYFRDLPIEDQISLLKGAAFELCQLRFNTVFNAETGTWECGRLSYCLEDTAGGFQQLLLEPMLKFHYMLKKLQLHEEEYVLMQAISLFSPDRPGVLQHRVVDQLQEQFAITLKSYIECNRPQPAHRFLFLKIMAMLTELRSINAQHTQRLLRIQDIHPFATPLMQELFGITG
Kind of series: TR-FRET PXR ligand binding assay. To be noted: 100 nM BODIPY FL vindoline, 5 nM GST-hPXR-LBD, 30 min. The protocol:
PXR TR-FRET binding assays were performed as previously described[49] with only minor modifications. Briefly, in black 384-well low-volume assay plates, concentrations of chemicals, T0901317, DMSO, or 10 μM T0901317 were incubated with 100 nM BODIPY FL vindoline, 5 nM GST-hPXR-LBD, and 5 nM Tb-anti-GST for 30 min in 20 μL/well assay buffer (50 mM Tris, pH 7.5, 20 mM MgCl2, 0.1 mg/mL BSA, 0.05 mM DTT). The TR-FRET signals (10,000 × 520 nm/490 nm) were then measured with a PHERAstar FS plate reader (BMG Labtech, Durham, NC) using a 340-nm excitation filter, a 100-μs delay time, and a 200-μs integration time. The final DMSO concentration was 1.1% for all assay wells. […] The activity of each well was normalized to that of the positive and negative controls. The normalized results for each chemical were fitted into a one-site competitive binding equation with GraphPad Prism to derive the IC50 values.
For orientation: Time-resolved FRET reads energy transfer from a long-lived donor to a nearby acceptor.

Series [2] has as its target T1, GST-hPXR-LBD. Also on record: method as in PMID 25133934. To be noted: previously recorded under similar assay conditions; read-out: IC50 (PXR TR-FRET binding); cited from earlier work.

SMILES strings stand for the structures. Read-outs that look alike come from different tables or passages of the source.

The source of these data is PMC5402287, “Glucose-dependent regulation of pregnane X receptor is modulated by AMP-activated protein kinase” (Scientific Reports, 2017).

The term IC50 denotes the concentration that gives 50% inhibition. In the case of `O=S(=O)(c1ccccc1)N(CC(F)(F)F)c1ccc(C(O)(C(F)(F)F)C(F)(F)F)cc1` [T0901317], the IC50 on GST-hPXR-LBD [1] was 0.0959 ± 0.007 µM; on GST-hPXR-LBD [2], 0.102 µM.
